ChEMBL document CHEMBL5385947, “Tepuazines A-E: Phenazine Glycosides from a Venezuelan Quartz-Rich (Tepui) Cave Soil-Derived Streptomyces virginiae CMB-CA091” (J Nat Prod, 2024)

How the values were obtained:
Bacillus subtilis = test: Antibacterial activity against Bacillus subtilis ATCC 6633 assessed as inhibition of bacterial growth; assay type: functional, organism-based
Staphylococcus aureus = test: Antibacterial activity against Staphylococcus aureus ATCC 25923 assessed as inhibition of bacterial growth; assay type: functional, organism-based
Escherichia coli = test: Antibacterial activity against Escherichia coli ATCC 11775 assessed as inhibition of bacterial growth; assay type: functional, organism-based
Candida albicans = test: Antifungal activity against Candida albicans ATCC 10231 assessed as inhibition of bacterial growth; assay type: functional, organism-based
SW-620 = test: Cytotoxicity against human SW620 cells assessed as inhibition of cell growth; assay type: functional, cell-based
NCI-H460 = test: Cytotoxicity against human NCI-H460 cells assessed as inhibition of cell growth; assay type: functional, cell-based

Measured: IC50

O=C(O)c1cc2c(c3nc4c(O)cccc4nc13)[C@@H]1Cc3nc4cccc(O)c4nc3[C@@](O)(C1)O2
> 30 µM: all assays above

C[C@@H]1O[C@@H](Oc2cc(C(=O)O)c3nc4cccc(O)c4nc3c2)[C@H](O)[C@H](O)[C@H]1O
> 30 µM: all assays above

C[C@@H]1O[C@@H](Oc2cccc3nc4c(C(=O)O)cc5c(c4nc23)[C@H]2Cc3nc4cccc(O)c4nc3[C@@H](O5)[C@H]2O)[C@H](O)[C@H](O)[C@H]1O
> 30 µM: all assays above

C[C@@H]1O[C@@H](Oc2cccc3nc4c(C(=O)O)cc5c(c4nc23)[C@@H]2Cc3nc4cccc(O)c4nc3[C@@](O)(C2)O5)[C@H](O)[C@H](O)[C@H]1O
> 30 µM: all assays above

CN(c1ccc(C(=O)O)cc1)c1cccc2nc3c(O)cccc3nc12 [IZUMIPHENAZINE C]
> 30 µM: all assays above

O=C(O)c1cc2c(c3nc4c(O)cccc4nc13)[C@H]1Cc3nc4cccc(O)c4nc3[C@@H](O2)[C@H]1O
> 30 µM: all assays above

C[C@H]1O[C@H](Oc2cccc3nc4ccccc4nc23)[C@@H](O)[C@@H](O)[C@@H]1O
> 30 µM: all assays above

C[C@H]1O[C@H](Oc2cccc3nc4c(N(C)c5ccc(C(=O)O)cc5)cccc4nc23)[C@@H](O)[C@@H](O)[C@@H]1O
> 30 µM: all assays above
